Results published in paper PMC12736120, “First-in-Human Phase I Clinical Trial of SLC-391, a Novel and Selective AXL Inhibitor, in Patients with Advanced Solid Tumours” (Pharmaceuticals, 2025).

Assays:
[1] = system: advanced solid tumours; experiment: Preliminary efficacy, disease assessment by RECIST 1.1 / mRECIST; format: in vivo, human; settings: for best percent change in target lesion diameter (decrease): one subject
Procedure: Disease assessments were performed according to RECIST 1.1 [20, 21] and included imaging and physical examination as appropriate for disease type and location. Disease assessments were completed at screening (within 30 days of C1D1) and every 3 cycles (±7 days) relative to C1D1 until objective disease progression, study drug discontinuation, or withdrawal of informed consent.

[2] = system: AXL; settings: stated in the Introduction, no reference given; read-out: IC50 against AXL; cited from earlier work

Nc1ncc(-c2cnn(C3CCNCC3)c2)cc1-c1nnc(CC2CC2)o1 [SLC-391, 3-(5-[cyclopropylmethyl]-1,3,4-oxadiazol-2-yl)-5-(1-[piperidin-4-yl]-1H-pyrazol-4-yl)-pyridin-2-amine]
rate of stable disease ([1]; 150 mg BID (3/6)): 50.0% | best overall response (BOR) of stable disease ([1]; NSCLC): 4/16 | subjects with stable disease ([1]; RECIST 1.1 or modified RECIST (mesothelioma)): 12 of 35 subjects | clinical benefit rate ([1]; all subjects (N = 35), monotherapy): 34.3% | best overall response (BOR) of stable disease ([1]; appendix adenocarcinoma): 1/1 | best overall response (BOR) of stable disease ([1]; head and neck cancer): 1/1 | best overall response (BOR) of stable disease ([1]; mammary adenocarcinoma): 1/1 | best overall response (BOR) of stable disease ([1]; melanoma): 1/1 | best overall response (BOR) of stable disease ([1]; mesothelioma): 4/4 | longest duration of stable disease ([1]; monotherapy): 318 days | patients with stable disease for more than half a year ([1]; monotherapy, all stage IV, pretreated): six | best percent change in target lesion diameter (decrease) ([1]; 50 mg QD, at cycle 7): 26.7% | best percent change in target lesion diameter (decrease) ([1]; 110 mg BID, on day 275): 22.2% | best percent change in target lesion diameter (decrease) ([1]; 150 mg BID, at the end of treatment visit): 8.9% | best percent change in target lesion diameter (decrease) ([1]; 150 mg QD, at cycle 7): 10.7% | IC50 [2]: 9.6 nM
